Measurements as given in ChEMBL document CHEMBL1201861, “Genomics of Drug Sensitity in Cancer screening data, Wellcome Trust Sanger Institute”.

Experiments:
Experiment in all cases: cells
ATN-1 = format: functional, cell-based; settings: Homo sapiens;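 further: growth inhibition of human ATN-1 cells, read out with a cell viability assay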
Description: SANGER: Inhibition of human ATN-1 cell growth in a cell viability assay.

NB7 = format: functional, cell-based; settings: Homo sapiens;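 further: growth inhibition of NB7 cells, read out with a cell viability assay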
Description: SANGER: Inhibition of human NB7 cell growth in a cell viability assay.

UACC-62 = format: functional, cell-based, Homo sapiens; settings: Homo sapiens, UACC-62;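 further: growth inhibition of human UACC-62 cells, read out by a cell viability assay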
Description: SANGER: Inhibition of human UACC-62 cell growth in a cell viability assay.

VMRC-RCZ = format: functional, cell-based; settings: Homo sapiens;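 further: growth inhibition measured with a cell viability assay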
Description: SANGER: Inhibition of human VMRC-RCZ cell growth in a cell viability assay.

K562 = format: functional, cell-based; settings: Homo sapiens
Description: SANGER: Inhibition of human K-562 cell growth in a cell viability assay.

DB = format: functional, cell-based; settings: Homo sapiens
Description: SANGER: Inhibition of human DB cell growth in a cell viability assay.

NCI-H1993 = format: functional, cell-based, Homo sapiens; settings: Homo sapiens, NCI-H1993;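 further: growth inhibition of the cancer cell line, assessed with a cell viability assay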
Description: SANGER: Inhibition of human NCI-H1993 cell growth in a cell viability assay.

TE-5 = format: functional, cell-based, Homo sapiens; settings: Homo sapiens, TE-5;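 further: inhibition of cell growth, read out by a cell viability assay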
Description: SANGER: Inhibition of human TE-5 cell growth in a cell viability assay.

PSN1 = format: functional, cell-based, Homo sapiens; settings: Homo sapiens, PSN1;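 further: suppression of growth of human PSN1 cells, read out by a cell viability assay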
Description: SANGER: Inhibition of human PSN1 cell growth in a cell viability assay.

HH = format: functional, cell-based; settings: Homo sapiens
Description: SANGER: Inhibition of human HH cell growth in a cell viability assay.

NY = format: functional, cell-based, Homo sapiens; settings: Homo sapiens, NY
Description: SANGER: Inhibition of human NY cell growth in a cell viability assay.

L-428 = format: functional, cell-based; settings: Homo sapiens
Description: SANGER: Inhibition of human L-428 cell growth in a cell viability assay.

NCI-H1651 = format: functional, cell-based, Homo sapiens; settings: Homo sapiens, NCI-H1651;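 further: Read-out is a cell viability assay, with IC50 expressing inhibition of NCI-H1651 cell growth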
Description: SANGER: Inhibition of human NCI-H1651 cell growth in a cell viability assay.

HuO-3N1 = format: functional, cell-based, Homo sapiens; settings: Homo sapiens, HuO-3N1;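 further: cell viability readout used to measure how strongly compounds suppress proliferation of human HuO-3N1 cells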
Description: SANGER: Inhibition of human HuO-3N1 cell growth in a cell viability assay.

HCC1187 = format: functional, cell-based, Homo sapiens; settings: Homo sapiens, HCC1187;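 further: growth inhibition of HCC1187 cells, read out with a cell viability assay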
Description: SANGER: Inhibition of human HCC1187 cell growth in a cell viability assay.

OVCAR-8 = format: functional, cell-based, Homo sapiens; settings: Homo sapiens, OVCAR-8;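 further: growth inhibition of human OVCAR-8 cells, read out by a cell viability assay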
Description: SANGER: Inhibition of human OVCAR-8 cell growth in a cell viability assay.

LNCaP-Clone-FGC = format: functional, cell-based, Homo sapiens; settings: Homo sapiens, LNCaP-Clone-FGC
Description: SANGER: Inhibition of human LNCaP-Clone-FGC cell growth in a cell viability assay.

CAL-72 = format: functional, cell-based, Homo sapiens; settings: Homo sapiens, CAL-72;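 further: cell viability assay measuring inhibition of proliferation in the CAL-72 cell line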
Description: SANGER: Inhibition of human CAL-72 cell growth in a cell viability assay.

DJM-1 = format: functional, cell-based, Homo sapiens; settings: Homo sapiens, DJM-1;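 further: growth inhibition of human DJM-1 cells, read out by a cell viability assay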
Description: SANGER: Inhibition of human DJM-1 cell growth in a cell viability assay.

UACC-257 = format: functional, cell-based, Homo sapiens; settings: Homo sapiens, UACC-257
Description: SANGER: Inhibition of human UACC-257 cell growth in a cell viability assay.

TK-10 = format: functional, cell-based, Homo sapiens; settings: Homo sapiens, TK-10;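 further: growth inhibition of TK-10 cells, read out in a cell viability assay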
Description: SANGER: Inhibition of human TK10 cell growth in a cell viability assay.

COLO-824 = format: functional, cell-based, Homo sapiens; settings: Homo sapiens, COLO-824
Description: SANGER: Inhibition of human COLO-824 cell growth in a cell viability assay.

KY821 = format: functional, cell-based; settings: Homo sapiens;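 further: growth inhibition of human KY821 cells, read out by a cell viability assay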
Description: SANGER: Inhibition of human KY821 cell growth in a cell viability assay.

SNU-387 = format: functional, cell-based, Homo sapiens; settings: Homo sapiens, SNU-387
Description: SANGER: Inhibition of human SNU-387 cell growth in a cell viability assay.

RVH-421 = format: functional, cell-based, Homo sapiens; settings: Homo sapiens, RVH-421
Description: SANGER: Inhibition of human RVH-421 cell growth in a cell viability assay.

NCI-H810 = format: functional, cell-based, Homo sapiens; settings: Homo sapiens, NCI-H810;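 further: IC50 reflects inhibition of cancer cell line growth, read out with a cell viability assay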
Description: SANGER: Inhibition of human NCI-H810 cell growth in a cell viability assay.

TE-9 = format: functional, cell-based, Homo sapiens; settings: Homo sapiens, TE-9;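 further: cell growth inhibition, measured with a cell viability readout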
Description: SANGER: Inhibition of human TE-9 cell growth in a cell viability assay.

ES5 = format: functional, cell-based, Homo sapiens; settings: Homo sapiens, ES5;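 further: growth inhibition of human ES5 cells, read out by a cell viability assay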
Description: SANGER: Inhibition of human ES5 cell growth in a cell viability assay.

EFO-27 = format: functional, cell-based, Homo sapiens; settings: Homo sapiens, EFO-27;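 further: growth inhibition of EFO-27 cells, read out with a cell viability assay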
Description: SANGER: Inhibition of human EFO-27 cell growth in a cell viability assay.

JVM-3 = format: functional, cell-based; settings: Homo sapiens;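 further: growth inhibition of human JVM-3 cells, read out with a cell viability assay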
Description: SANGER: Inhibition of human JVM-3 cell growth in a cell viability assay.

DU-145 = format: functional, cell-based, Homo sapiens; settings: Homo sapiens, DU-145
Description: SANGER: Inhibition of human DU-145 cell growth in a cell viability assay.

COLO-800 = format: functional, cell-based, Homo sapiens; settings: Homo sapiens, COLO-800;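 further: growth inhibition of COLO-800 cells, read out with a cell viability assay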
Description: SANGER: Inhibition of human COLO-800 cell growth in a cell viability assay.

A 172 = format: functional, cell-based, Homo sapiens; settings: Homo sapiens, A 172;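 further: growth inhibition of A172 cells, measured with a cell viability readout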
Description: SANGER: Inhibition of human A172 cell growth in a cell viability assay.

NOMO-1 = format: functional, cell-based; settings: Homo sapiens;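 further: growth inhibition of human NOMO-1 cells measured by a cell viability assay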
Description: SANGER: Inhibition of human NOMO-1 cell growth in a cell viability assay.

LS-411N = format: functional, cell-based, Homo sapiens; settings: Homo sapiens, LS-411N
MEL-HO = format: functional, cell-based, Homo sapiens; settings: Homo sapiens, MEL-HO
Description: SANGER: Inhibition of human MEL-HO cell growth in a cell viability assay.

ASPC1 = format: functional, cell-based, Homo sapiens; settings: Homo sapiens, ASPC1;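 further: growth inhibition of AsPC-1 cells, read out with a cell viability assay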
Description: SANGER: Inhibition of human AsPC-1 cell growth in a cell viability assay.

MZ7-mel = format: functional, cell-based, Homo sapiens; settings: Homo sapiens, MZ7-mel;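 further: growth inhibition of human MZ7-mel cells, measured by a cell viability assay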
Description: SANGER: Inhibition of human MZ7-mel cell growth in a cell viability assay.

OCI-AML2 = format: functional, cell-based; settings: Homo sapiens;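 further: growth inhibition of OCI-AML2 cells, read out with a cell viability assay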
Description: SANGER: Inhibition of human OCI-AML2 cell growth in a cell viability assay.

SAOS-2 = format: functional, cell-based, Homo sapiens; settings: Homo sapiens, SAOS-2;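 further: growth inhibition of human Saos-2 cells determined by a cell viability assay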
Description: SANGER: Inhibition of human Saos-2 cell growth in a cell viability assay.

KYSE-450 = format: functional, cell-based; settings: Homo sapiens;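 further: cell growth inhibition measured by a viability assay in human KYSE-450 cells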
Description: SANGER: Inhibition of human KYSE-450 cell growth in a cell viability assay.

FaDu = format: functional, cell-based, Homo sapiens; settings: Homo sapiens, FaDu;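 further: cell viability readout of growth inhibition in FaDu cells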
Description: SANGER: Inhibition of human FADU cell growth in a cell viability assay.

NB17 = format: functional, cell-based; settings: Homo sapiens;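 further: growth inhibition of NB17 cells, read out with a cell viability assay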
Description: SANGER: Inhibition of human NB17 cell growth in a cell viability assay.

RPMI-2650 = format: functional, cell-based, Homo sapiens; settings: Homo sapiens, RPMI-2650
Description: SANGER: Inhibition of human RPMI-2650 cell growth in a cell viability assay.

NCI-H2342 = format: functional, cell-based; settings: Homo sapiens;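 further: growth inhibition of the cancer cell line, determined with a cell viability assay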
Description: SANGER: Inhibition of human NCI-H2342 cell growth in a cell viability assay.

MHH-PREB-1 = format: functional, cell-based; settings: Homo sapiens;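 further: cell viability assay measuring inhibition of proliferation of human MHH-PREB-1 cells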
Description: SANGER: Inhibition of human MHH-PREB-1 cell growth in a cell viability assay.

BB30-HNC = format: functional, cell-based, Homo sapiens; settings: Homo sapiens, BB30-HNC;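 further: growth inhibition of the cultured cell line, read out by a cell viability assay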
Description: SANGER: Inhibition of human BB30-HNC cell growth in a cell viability assay.

NCI-H1648 = format: functional, cell-based, Homo sapiens; settings: Homo sapiens, NCI-H1648;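 further: cell viability assay measuring inhibition of NCI-H1648 cell growth, from the Sanger screening data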
Description: SANGER: Inhibition of human NCI-H1648 cell growth in a cell viability assay.

LS-513 = format: functional, cell-based, Homo sapiens; settings: Homo sapiens, LS-513
Description: SANGER: Inhibition of human LS-513 cell growth in a cell viability assay.

UMUC3 = format: functional, cell-based, Homo sapiens; settings: Homo sapiens, UMUC3;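 further: growth inhibition of human UM-UC-3 cells, read out with a cell viability assay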
Description: SANGER: Inhibition of human UM-UC-3 cell growth in a cell viability assay.

NCI-H1770 = format: functional, cell-based; settings: Homo sapiens;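 further: growth inhibition of NCI-H1770 cells determined with a viability readout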
Description: SANGER: Inhibition of human NCI-H1770 cell growth in a cell viability assay.

HDLM-2 = format: functional, cell-based; settings: Homo sapiens;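 further: cell viability assay measuring suppression of HDLM-2 proliferation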
Description: SANGER: Inhibition of human HDLM-2 cell growth in a cell viability assay.

EW-11 = format: functional, cell-based, Homo sapiens; settings: Homo sapiens, EW-11;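 further: growth inhibition of human EW-11 cells, measured with a cell viability assay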
Description: SANGER: Inhibition of human EW-11 cell growth in a cell viability assay.

For `Nc1ccn([C@@H]2O[C@H](CO)[C@@H](O)[C@@H]2O)c(=O)n1` [CYTARABINE], the IC50 (ATN-1) was 366 nM, the IC50 (NB7) was 1520 nM and the IC50 (UACC-62) was 666 nM. The IC50 (VMRC-RCZ) was 1350 nM, the IC50 (K562) was > 2000 nM and the IC50 (DB) was 246 nM. The IC50 (NCI-H1993) was > 2000 nM, the IC50 (TE-5) was 381 nM and the IC50 (PSN1) was 193 nM. For the same molecule, the IC50 (HH) was > 2000 nM, the IC50 (NY) was > 2000 nM and the IC50 (L-428) was > 2000 nM. For the same molecule, the IC50 (NCI-H1651) was > 2000 nM, the IC50 (HuO-3N1) was 1330 nM and the IC50 (HCC1187) was > 2000 nM. For the same molecule, the IC50 (OVCAR-8) was 211 nM, the IC50 (LNCaP-Clone-FGC) was 1310 nM and the IC50 (CAL-72) was > 2000 nM. For the same molecule, the IC50 (DJM-1) was > 2000 nM, the IC50 (UACC-257) was > 2000 nM and the IC50 (TK-10) was 1730 nM. The IC50 (COLO-824) was > 2000 nM, the IC50 (KY821) was > 2000 nM and the IC50 (SNU-387) was 289 nM. For the same molecule, the IC50 (RVH-421) was > 2000 nM, the IC50 (NCI-H810) was > 2000 nM and the IC50 (TE-9) was 1790 nM. It also gave an IC50 (ES5) of 243 nM, an IC50 (EFO-27) of 1940 nM and an IC50 (JVM-3) of 1450 nM. For the same molecule, the IC50 (DU-145) was > 2000 nM, the IC50 (COLO-800) was 425 nM and the IC50 (A 172) was > 2000 nM. For the same molecule, the IC50 (NOMO-1) was > 2000 nM, the IC50 (LS-411N) was 695 nM and the IC50 (MEL-HO) was > 2000 nM. The IC50 (ASPC1) was 1390 nM, the IC50 (MZ7-mel) was 417 nM and the IC50 (OCI-AML2) was 545 nM. The IC50 (SAOS-2) was 682 nM, the IC50 (KYSE-450) was 1090 nM and the IC50 (FaDu) was > 2000 nM. The IC50 (NB17) was > 2000 nM, the IC50 (RPMI-2650) was 401 nM and the IC50 (NCI-H2342) was > 2000 nM. For the same molecule, the IC50 (MHH-PREB-1) was 533 nM, the IC50 (BB30-HNC) was > 2000 nM and the IC50 (NCI-H1648) was > 2000 nM. For the same molecule, the IC50 (LS-513) was 380 nM, the IC50 (UMUC3) was 342 nM and the IC50 (NCI-H1770) was > 2000 nM. For the same molecule, the IC50 (HDLM-2) was > 2000 nM.

`CC(=O)O[C@@]12CO[C@@H]1C[C@H](O)[C@@]1(C)C(=O)[C@H](O)C3=C(C)[C@@H](OC(=O)[C@H](O)[C@@H](NC(=O)OC(C)(C)C)c4ccccc4)C[C@@](O)([C@@H](OC(=O)c4ccccc4)[C@H]21)C3(C)C` [DOCETAXEL] was tested, and the IC50 (ATN-1) was > 10 nM, the IC50 (NB7) was > 10 nM and the IC50 (UACC-62) was 3.3 nM. The IC50 (VMRC-RCZ) was 2.52 nM, the IC50 (K562) was > 10 nM and the IC50 (DB) was 1.78 nM. For the same molecule, the IC50 (NCI-H1993) was > 10 nM, the IC50 (TE-5) was 1.06 nM and the IC50 (PSN1) was 0.581 nM. The IC50 (HH) was > 10 nM, the IC50 (NY) was > 10 nM and the IC50 (L-428) was > 10 nM. The IC50 (NCI-H1651) was 5.4 nM, the IC50 (HuO-3N1) was 0.302 nM and the IC50 (OVCAR-8) was 2.12 nM. For the same molecule, the IC50 (LNCaP-Clone-FGC) was 1.1 nM, the IC50 (CAL-72) was > 10 nM and the IC50 (DJM-1) was > 10 nM. The IC50 (UACC-257) was > 10 nM, the IC50 (TK-10) was 9.77 nM and the IC50 (COLO-824) was 5.9 nM. It also gave an IC50 (KY821) of 5.51 nM, an IC50 (SNU-387) of 2.61 nM and an IC50 (RVH-421) of 4.61 nM. It also gave an IC50 (NCI-H810) of 6.22 nM, an IC50 (TE-9) of 0.676 nM and an IC50 (ES5) of 0.91 nM. The IC50 (EFO-27) was 1.02 nM, the IC50 (JVM-3) was 2.33 nM and the IC50 (DU-145) was > 10 nM. For the same molecule, the IC50 (COLO-800) was 0.388 nM, the IC50 (A 172) was 1.63 nM and the IC50 (NOMO-1) was 5.13 nM. The IC50 (LS-411N) was 3.14 nM, the IC50 (MEL-HO) was > 10 nM and the IC50 (ASPC1) was 6.83 nM. For the same molecule, the IC50 (MZ7-mel) was > 10 nM, the IC50 (OCI-AML2) was > 10 nM and the IC50 (SAOS-2) was 1.68 nM. It also gave an IC50 (KYSE-450) of 1.43 nM, an IC50 (FaDu) of 5.1 nM and an IC50 (NB17) of 1.89 nM. For the same molecule, the IC50 (RPMI-2650) was 2.46 nM, the IC50 (NCI-H2342) was > 10 nM and the IC50 (MHH-PREB-1) was 1.89 nM. The IC50 (BB30-HNC) was 1.05 nM, the IC50 (NCI-H1648) was 6.01 nM and the IC50 (LS-513) was > 10 nM. For the same molecule, the IC50 (UMUC3) was > 10 nM, the IC50 (EW-11) was 1.69 nM and the IC50 (NCI-H1770) was 3.42 nM. The IC50 (HDLM-2) was > 10 nM.

In the case of `O=C(c1cc(Cc2n[nH]c(=O)c3ccccc23)ccc1F)N1CCN(C(=O)C2CC2)CC1` [OLAPARIB], the IC50 (ATN-1) is reported as > 5000 nM, the IC50 (NB7) is reported as > 5000 nM and the IC50 (UACC-62) is reported as > 5000 nM. For the same molecule, the IC50 (VMRC-RCZ) was > 5000 nM, the IC50 (K562) was > 5000 nM and the IC50 (DB) was 3650 nM. For the same molecule, the IC50 (NCI-H1993) was > 5000 nM, the IC50 (TE-5) was > 5000 nM and the IC50 (PSN1) was > 5000 nM. The IC50 (HH) was > 5000 nM, the IC50 (NY) was > 5000 nM and the IC50 (L-428) was > 5000 nM. For the same molecule, the IC50 (NCI-H1651) was > 5000 nM, the IC50 (HuO-3N1) was > 5000 nM and the IC50 (OVCAR-8) was > 5000 nM. For the same molecule, the IC50 (LNCaP-Clone-FGC) was > 5000 nM, the IC50 (CAL-72) was > 5000 nM and the IC50 (DJM-1) was > 5000 nM. The IC50 (UACC-257) was > 5000 nM, the IC50 (TK-10) was > 5000 nM and the IC50 (COLO-824) was > 5000 nM. For the same molecule, the IC50 (KY821) was > 5000 nM, the IC50 (SNU-387) was > 5000 nM and the IC50 (RVH-421) was > 5000 nM. The IC50 (NCI-H810) was > 5000 nM, the IC50 (TE-9) was > 5000 nM and the IC50 (ES5) was 2880 nM. For the same molecule, the IC50 (EFO-27) was > 5000 nM, the IC50 (JVM-3) was > 5000 nM and the IC50 (DU-145) was > 5000 nM. For the same molecule, the IC50 (COLO-800) was 442 nM, the IC50 (A 172) was > 5000 nM and the IC50 (NOMO-1) was > 5000 nM. For the same molecule, the IC50 (LS-411N) was > 5000 nM, the IC50 (MEL-HO) was > 5000 nM and the IC50 (ASPC1) was > 5000 nM. For the same molecule, the IC50 (MZ7-mel) was > 5000 nM, the IC50 (OCI-AML2) was > 5000 nM and the IC50 (SAOS-2) was > 5000 nM. The IC50 (KYSE-450) was > 5000 nM, the IC50 (FaDu) was > 5000 nM and the IC50 (NB17) was > 5000 nM. For the same molecule, the IC50 (RPMI-2650) was > 5000 nM, the IC50 (NCI-H2342) was > 5000 nM and the IC50 (MHH-PREB-1) was > 5000 nM. For the same molecule, the IC50 (BB30-HNC) was > 5000 nM, the IC50 (NCI-H1648) was > 5000 nM and the IC50 (LS-513) was > 5000 nM. The IC50 (UMUC3) was > 5000 nM, the IC50 (EW-11) was > 5000 nM and the IC50 (NCI-H1770) was > 5000 nM. The IC50 (HDLM-2) was > 5000 nM.
